Test results taken from patent US10294202B2, “Pyrrolidinones as herbicides” (FMC Corporation, priority 2013, dated 2019).
Where “and” joins values, the source holds several entries; their conditions need not be identical. Equal entries are not always repeated.

Tests used:
corn (ZEAMD) = assay: Test H preemergence mixture test (Colby); type: in vivo, Zea mays; settings: Mesotrione alone 16 g a.i./ha, 21 d after treatment, scale 0 to 100
From the text: (§1) Colby's Equation was used to determine the herbicidal effects expected from the mixtures. Colby's Equation (Colby, S. R. “Calculating Synergistic and Antagonistic Responses of Herbicide Combinations,” Weeds, 15(1), pp 20-22 (1967)) calculates the expected additive effect of herbicidal mixtures and for two active ingredients is of the form: Pa+b=Pa+Pb−(PaPb/100)
(§2) where • Pa+b is the percentage effect of the mixture expected from additive contribution of the individual components: • Pa is the observed percentage effect of the first active ingredient at the same use rate as in the mixture, and • Pb is the observed percentage effect of the second active ingredient at the same use rate as in the mixture. In the following Tables, rates are shown in grams of active ingredient per hectare (g a.i./ha); “Obsd.” is the observed effect. “Exp.” is the expected effect calculated from Colby's Equation.
(§3) This test evaluated the effect of mixtures of compound 80 with several commercial herbicides on four plant species. Seeds of plant species selected from corn (ZEAMD, Zea mays), soybean (GLXMA, Glycine max), waterhemp (common waterhemp, AMATA, Amaranthus rudis), and giant foxtail (SETFA, Setaria faberii) were planted into a silt loam soil and treated preemergence with test chemicals formulated in a non-phytotoxic solvent mixture which included a surfactant and applied using a volume of 281 L/ha. Each treatment was replicated three times. Treated plants and controls were maintained in a greenhouse using supplemental lighting to maintain a photoperiod of about 16 h; daytime and nighttime temperatures were about 24-30° C. and 19-21° C., respectively. Nutrients were applied using a balanced fertilizer applied through the watering system. At 21 d after treatment, all species were compared to controls and visually evaluated. Plant response ratings were calculated as the means of the three replicates, are summarized in Tables H1 through H5, and are based on a scale of 0 to 100 where 0 is no effect and 100 is complete control. A dash (-) response means no test result. The Expected (Exp.) results were calculated using Colby's Equation as described for Test G above.

giant foxtail (SETFA) = assay: Test H preemergence mixture test (Colby); type: in vivo, Setaria faberii; settings: Mesotrione alone 16 g a.i./ha, 21 d after treatment, scale 0 to 100
From the text: as §1, §2, §3

soybean (GLXMA) = assay: Test H preemergence mixture test (Colby); type: in vivo, Glycine max; settings: Mesotrione alone 16 g a.i./ha, 21 d after treatment, scale 0 to 100
From the text: as §1, §2, §3

waterhemp (AMATA) = assay: Test H preemergence mixture test (Colby); type: in vivo, Amaranthus rudis; settings: Mesotrione alone 16 g a.i./ha, 21 d after treatment, scale 0 to 100
From the text: as §1, §2, §3

[1] = tested on: small-flower umbrella sedge (CYPDI); assay: Test G paddy mixture test (Colby); type: in vivo, Cyperus difformis; settings: applied alone, 14 d; for CYPDI Obsd.: scale 0-100
Protocol: (§4) Seeds of small-flower umbrella […], Cyperus difformis) and […], Heteranthera limosa) were sown on the soil surface in two separate quadrants of 11-cm (4-inch) tubs filled with steam pasteurized Tama soil. Simultaneously, plantings of […], Echinochloa crus-galli) and transplanted japonica rice (ORYSA, Oryza sativa) were established in separate “plug” flats. […] Herbicide application timing was targeted at the 2.0 to 2.5 leaf stage and the plants were treated with test chemicals formulated in a non-phytotoxic solvent. Treated plants and controls were maintained in a greenhouse for 14 d, after which time all species were compared to controls and visually evaluated. Plant response ratings are summarized in Tables G1 through G12, and are based on a scale of 0 to 100 where 0 is no effect and 100 is complete control. A dash (-) response means no test result. Colby's Equation was used to determine the herbicidal effects expected from the mixtures. Colby's Equation (Colby, S. R. “Calculating Synergistic and Antagonistic Responses of Herbicide Combinations,” Weeds, 15(1), pp 20-22 (1967)) calculates the expected additive effect of herbicidal mixtures and for two active ingredients is of the form: Pa+b=Pa+Pb-(PaPb/100) where • Pa+b is the percentage effect of the mixture expected from additive contribution of the individual components: • Pa is the observed percentage effect of the first active ingredient at the same use rate as in the mixture, and • Pb is the observed percentage effect of the second active ingredient at the same use rate as in the mixture. In the following Tables, rates are shown in grams of active ingredient per […]); “Obsd.” is the observed effect. “Exp.” is the expected effect calculated from Colby's Equation.

barnyardgrass (ECHCG) = assay: Test G paddy mixture test (Colby); type: in vivo, Echinochloa crus-galli; settings: applied alone, 14 d; for ECHCG Obsd.: scale 0-100
Protocol: as §4

[2] = tested on: transplanted japonica rice (ORYSA); assay: Test G paddy mixture test (Colby); type: in vivo, Oryza sativa; settings: applied alone, 14 d; for ORYSA Obsd.: scale 0-100
Protocol: as §4

ducksalad (HETLI) = assay: Test G paddy mixture test (Colby); type: in vivo, Heteranthera limosa; settings: applied alone, 14 d; for HETLI Obsd.: scale 0-100
Protocol: as §4

## CS(=O)(=O)c1ccc(C(=O)C2C(=O)CCCC2=O)c([N+](=O)[O-])c1 [Mesotrione, reference compound]
Corn (ZEAMD)
  Plant response rating, Obsd., ZEAMD: 12
Giant foxtail (SETFA)
  Plant response rating, Obsd., SETFA: 0
Soybean (GLXMA)
  Plant response rating, Obsd., GLXMA: 25
Waterhemp (AMATA)
  Plant response rating, Obsd., AMATA: 96

## COCc1cccc(C(O)c2nc(OC)cc(OC)n2)c1NS(=O)(=O)C(F)F (centres unmarked) [Pyrimisulfan]
[1]; 20 g a.i./ha
  CYPDI Obsd.: 98 and 100
Barnyardgrass (ECHCG); 20 g a.i./ha
  ECHCG Obsd.: 75 and 80
[2]; 20 g a.i./ha
  ORYSA Obsd.: 25 and 20
Ducksalad (HETLI); 20 g a.i./ha
  HETLI Obsd.: 100

## CS(=O)(=O)c1ccc(C(=O)C2C(=O)CCCC2=O)c(Cl)c1COCC1CCCO1 (centres unmarked) [Tefuryltrione]
[1]; 100 g a.i./ha
  CYPDI Obsd.: 90
[1]; 100 g a.i./ha, flooded
  CYPDI Obsd. plant response rating (scale 0 to 100): 100
Barnyardgrass (ECHCG); 100 g a.i./ha
  ECHCG Obsd.: 0
Barnyardgrass (ECHCG); 100 g a.i./ha, flooded
  ECHCG Obsd. plant response rating (scale 0 to 100): 40
[2]; 100 g a.i./ha
  ORYSA Obsd.: 0
[2]; 100 g a.i./ha, flooded
  ORYSA Obsd. plant response rating (scale 0 to 100): 0
Ducksalad (HETLI); 100 g a.i./ha
  HETLI Obsd.: 90
Ducksalad (HETLI); 100 g a.i./ha, flooded
  HETLI Obsd. plant response rating (scale 0 to 100): 100

## COc1nc(OC)nc(C(=O)c2cccc(F)c2N(C)S(=O)(=O)C(F)F)n1 [Triafamone, N-[2-[(4,6-dimethoxy-1,3,5-triazin-2-yl)carbonyl]-6-fluorophenyl]-1,1-difluoro-N-methylmethanesulfonamide]
[1]; 20 g a.i./ha
  CYPDI Obsd.: 0
Barnyardgrass (ECHCG); 20 g a.i./ha
  ECHCG Obsd.: 90 and 85
[2]; 20 g a.i./ha
  ORYSA Obsd.: 0
Ducksalad (HETLI); 20 g a.i./ha
  HETLI Obsd.: 0
